Experimental data from US8895733B2 (Novartis AG, priority 2010, dated 2014).

Each compound was assayed against T1, Nav 1.7 (Homo sapiens, UniProt Q15858) (assay: Whole-cell voltage clamp electrophysiology, automated patch clamp (marker c in Table of Examples)). Conditions: marker c = Automated patch clamp data; read-out: Nav 1.7 activity.
T1 construct: expressed in transfected cells
Assay type: cell-based
Summary of the method: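 A voltage protocol weighted toward inactivated-state block was used to test compounds on stably expressing cells, with pulses from −65 mV holding to −10 mV test and −100 mV. Currents came from whole-cell automated patch-clamp recordings, either IonWorks Quattro or other automated instruments, usually in perforated-patch mode.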

T1 sequence (Q15858 whole entry): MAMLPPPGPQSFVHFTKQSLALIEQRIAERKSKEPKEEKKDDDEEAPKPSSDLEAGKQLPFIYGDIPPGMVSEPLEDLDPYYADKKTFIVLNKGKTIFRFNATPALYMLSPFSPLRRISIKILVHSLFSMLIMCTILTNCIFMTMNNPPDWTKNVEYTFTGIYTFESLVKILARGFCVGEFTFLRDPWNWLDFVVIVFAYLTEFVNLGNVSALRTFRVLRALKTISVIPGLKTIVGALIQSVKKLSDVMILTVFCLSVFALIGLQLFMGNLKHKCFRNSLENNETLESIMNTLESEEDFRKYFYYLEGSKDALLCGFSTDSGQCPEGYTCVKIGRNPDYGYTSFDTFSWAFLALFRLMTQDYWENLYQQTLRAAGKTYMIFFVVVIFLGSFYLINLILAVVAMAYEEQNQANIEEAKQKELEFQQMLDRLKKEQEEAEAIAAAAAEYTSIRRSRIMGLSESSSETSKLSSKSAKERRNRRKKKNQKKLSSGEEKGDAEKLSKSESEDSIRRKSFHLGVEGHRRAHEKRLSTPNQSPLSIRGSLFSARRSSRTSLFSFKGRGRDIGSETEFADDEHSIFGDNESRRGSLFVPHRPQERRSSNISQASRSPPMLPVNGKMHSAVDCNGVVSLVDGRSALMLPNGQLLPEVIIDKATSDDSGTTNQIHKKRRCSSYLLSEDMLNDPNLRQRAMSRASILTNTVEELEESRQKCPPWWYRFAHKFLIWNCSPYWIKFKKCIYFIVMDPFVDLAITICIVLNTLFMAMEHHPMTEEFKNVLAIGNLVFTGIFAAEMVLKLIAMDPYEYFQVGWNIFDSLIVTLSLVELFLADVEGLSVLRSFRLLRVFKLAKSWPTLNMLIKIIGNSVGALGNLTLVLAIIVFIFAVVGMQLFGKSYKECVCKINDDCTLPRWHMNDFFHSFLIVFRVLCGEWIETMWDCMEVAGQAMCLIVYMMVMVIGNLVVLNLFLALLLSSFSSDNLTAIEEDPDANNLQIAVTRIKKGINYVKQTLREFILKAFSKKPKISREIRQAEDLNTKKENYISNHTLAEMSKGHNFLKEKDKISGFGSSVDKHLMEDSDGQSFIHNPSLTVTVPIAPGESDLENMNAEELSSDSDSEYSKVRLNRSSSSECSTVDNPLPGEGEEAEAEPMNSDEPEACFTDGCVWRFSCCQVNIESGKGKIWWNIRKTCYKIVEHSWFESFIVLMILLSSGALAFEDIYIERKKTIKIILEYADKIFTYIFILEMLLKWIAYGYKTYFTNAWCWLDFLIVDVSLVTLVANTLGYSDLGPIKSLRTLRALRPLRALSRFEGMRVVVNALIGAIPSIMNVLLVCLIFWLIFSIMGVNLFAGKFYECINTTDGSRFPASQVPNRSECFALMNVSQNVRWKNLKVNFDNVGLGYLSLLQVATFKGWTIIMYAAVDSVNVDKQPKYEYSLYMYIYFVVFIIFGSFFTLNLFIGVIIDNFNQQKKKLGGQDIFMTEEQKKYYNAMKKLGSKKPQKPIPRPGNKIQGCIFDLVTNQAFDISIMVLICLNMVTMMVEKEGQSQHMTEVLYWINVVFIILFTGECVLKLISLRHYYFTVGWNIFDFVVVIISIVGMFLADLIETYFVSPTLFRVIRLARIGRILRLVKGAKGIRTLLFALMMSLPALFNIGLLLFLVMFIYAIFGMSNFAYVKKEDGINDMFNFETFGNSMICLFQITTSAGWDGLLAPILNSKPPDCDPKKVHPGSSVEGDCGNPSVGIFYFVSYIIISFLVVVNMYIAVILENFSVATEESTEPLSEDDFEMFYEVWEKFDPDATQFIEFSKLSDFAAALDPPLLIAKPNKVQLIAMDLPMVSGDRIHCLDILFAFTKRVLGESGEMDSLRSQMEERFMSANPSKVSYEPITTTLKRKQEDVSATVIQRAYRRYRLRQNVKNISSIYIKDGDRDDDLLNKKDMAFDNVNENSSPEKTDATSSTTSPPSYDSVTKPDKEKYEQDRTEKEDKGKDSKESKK

Structure (SMILES)	IC50 [µM]
Nc1nc(Nc2ccccc2)nc(-c2noc(C(=O)NC3CCCC3)n2)n1 [Example 218, 3-[4-amino-6-(phenylamino)-1,3,5-triazin-2-yl]-N-cyclopentyl-1,2,4-oxadiazole-5-carboxamide]	2.51
Nc1nc(Nc2cccc(F)c2)nc(-c2noc(C(=O)NC3CCCC3)n2)n1 [Example 219, 3-{4-amino-6-[(3-fluorophenyl)amino]-1,3,5-triazin-2-yl}-N-cyclopentyl-1,2,4-oxadiazole-5-carboxamide]	1.96
NC(=O)c1nc(-c2nc(N)nc(Nc3ccccc3)n2)no1 [Example 222, 3-[4-amino-6-(phenylamino)-1,3,5-triazin-2-yl]-1,2,4-oxadiazole-5-carboxamide]	7.71
NC(=O)c1nc(-c2nc(N)nc(Nc3cccc(F)c3)n2)no1 [Example 223, 3-{4-amino-6-[(3-fluorophenyl)amino]-1,3,5-triazin-2-yl}-1,2,4-oxadiazole-5-carboxamide]	6.5
Nc1nc(Nc2cccc(F)c2)nc(-c2noc(C(=O)NC3CCC3)n2)n1 [Example 224, 3-{4-amino-6-[(3-fluorophenyl)amino]-1,3,5-triazin-2-yl}-N-cyclobutyl-1,2,4-oxadiazole-5-carboxamide]	1.52
Nc1nc(Nc2cccc(F)c2)nc(-c2noc(C(=O)NC3CCc4ccccc43)n2)n1 (centres unmarked) [Example 226, 3-{4-amino-6-[(3-fluorophenyl)amino]-1,3,5-triazin-2-yl}-N-(2,3-dihydro-1H-inden-1-yl)-1,2,4-oxadiazole-5-carboxamide]	3.42
Nc1nc(Nc2ccccc2)nc(-c2noc(C(=O)NC3Cc4ccccc4C3)n2)n1 [Example 229, 3-[4-amino-6-(phenylamino)-1,3,5-triazin-2-yl]-N-(2,3-dihydro-1H-inden-2-yl)-1,2,4-oxadiazole-5-carboxamide]	9.19
Nc1nc(Nc2ccccc2)nc(-c2noc(C(=O)N3Cc4ccccc4C3)n2)n1 [Example 230, 6-{5-[(2,3-dihydro-1H-isoindol-2-yl)carbonyl]-1,2,4-oxadiazol-3-yl}-2-N-phenyl-1,3,5-triazine-2,4-diamine]	9.25
Nc1nc(Nc2ccccc2)nc(-c2noc(NC3CCCC3)n2)n1 [Example 231, 6-[5-(cyclopentylamino)-1,2,4-oxadiazol-3-yl]-2-N-phenyl-1,3,5-triazine-2,4-diamine]	3.21
Nc1nc(Nc2cccc(F)c2)nc(-c2noc(C(=O)N3CCOCC3)n2)n1 [Example 232, 2-N-(3-fluorophenyl)-6-{5-[(morpholin-4-yl)carbonyl]-1,2,4-oxadiazol-3-yl}-1,3,5-triazine-2,4-diamine]	9.33
Nc1nc(Nc2cccc(F)c2)nc(-c2noc(C(=O)N[C@@H]3CCOC3)n2)n1 [Example 233, 3-{4-amino-6-[(3-fluorophenyl)amino]-1,3,5-triazin-2-yl}-N-[(3R)-oxolan-3-yl]-1,2,4-oxadiazole-5-carboxamide]	5.66
Nc1nc(Nc2cccc(F)c2)nc(-c2noc(NC3CCCC3)n2)n1 [Example 235, 6-[5-(cyclopentylamino)-1,2,4-oxadiazol-3-yl]-2-N-(3-fluorophenyl)-1,3,5-triazine-2,4-diamine]	1.69
COC1CCN(c2nc(-c3nc(N)nc(Nc4cccc(F)c4)n3)no2)CC1 [Example 237, 2-N-(3-fluorophenyl)-6-[5-(4-methoxypiperidin-1-yl)-1,2,4-oxadiazol-3-yl]-1,3,5-triazine-2,4-diamine]	3.99
COc1cc(-c2nc(-c3nc(N)nc(Nc4ccccc4)n3)no2)ccn1 [Example 239, 6-[5-(2-methoxypyridin-4-yl)-1,2,4-oxadiazol-3-yl]-2-N-phenyl-1,3,5-triazine-2,4-diamine]	5.87
Nc1nc(Nc2ccccc2)nc(-c2noc(NC3CCCCC3)n2)n1 [Example 242, 6-[5-(cyclohexylamino)-1,2,4-oxadiazol-3-yl]-2-N-phenyl-1,3,5-triazine-2,4-diamine]	5.37
CC1CCN(c2nc(-c3nc(N)nc(Nc4ccccc4)n3)no2)CC1 [Example 243, 6-[5-(4-methylpiperidin-1-yl)-1,2,4-oxadiazol-3-yl]-2-N-phenyl-1,3,5-triazine-2,4-diamine]	7.95
Nc1nc(Nc2ccccc2)nc(-c2noc(C(=O)NC3CCc4ccccc43)n2)n1 (centres unmarked) [Example 244, 3-[4-amino-6-(phenylamino)-1,3,5-triazin-2-yl]-N-(2,3-dihydro-1H-inden-1-yl)-1,2,4-oxadiazole-5-carboxamide]	2.97
CC1CCN(c2nc(-c3nc(N)nc(Nc4cccc(F)c4)n3)no2)CC1 [Example 245, 2-N-(3-fluorophenyl)-6-[5-(4-methylpiperidin-1-yl)-1,2,4-oxadiazol-3-yl]-1,3,5-triazine-2,4-diamine]	3.09
Nc1nc(Nc2ccccc2)nc(-c2noc(N3CCC4(CC3)COC4)n2)n1 [Example 246, 6-(5-{2-oxa-7-azaspiro[3.5]nonan-7-yl}-1,2,4-oxadiazol-3-yl)-2-N-phenyl-1,3,5-triazine-2,4-diamine]	9.36
Nc1ccc(-c2nc(-c3nc(N)nc(Nc4cccc(F)c4)n3)no2)nc1 [Example 249, 6-[5-(5-aminopyridin-2-yl)-1,2,4-oxadiazol-3-yl]-2-N-(3-fluorophenyl)-1,3,5-triazine-2,4-diamine]	9.03
Nc1nc(Nc2cccc(F)c2)nc(-c2noc(C(=O)NC3COC3)n2)n1 [Example 250, 3-{4-amino-6-[(3-fluorophenyl)amino]-1,3,5-triazin-2-yl}-N-(oxetan-3-yl)-1,2,4-oxadiazole-5-carboxamide]	9.85
CN(c1ccccc1)c1nc(N)nc(-c2noc(-c3n[nH]cc3Br)n2)n1 [Example 251, 6-[5-(4-bromo-1H-pyrazol-3-yl)-1,2,4-oxadiazol-3-yl]-2-N-methyl-2-N-phenyl-1,3,5-triazine-2,4-diamine]	2.53
CN(c1ccccc1)c1nc(N)nc(-c2noc(-c3ccn(C)n3)n2)n1 [Example 252, 2-N-methyl-6-[5-(1-methyl-1H-pyrazol-3-yl)-1,2,4-oxadiazol-3-yl]-2-N-phenyl-1,3,5-triazine-2,4-diamine]	2.38
CN(c1ccccc1)c1nc(N)nc(-c2noc(-c3ccnn3C)n2)n1 [Example 253, 2-N-methyl-6-[5-(1-methyl-1H-pyrazol-5-yl)-1,2,4-oxadiazol-3-yl]-2-N-phenyl-1,3,5-triazine-2,4-diamine]	4.56
CN(c1ccccc1)c1nc(N)nc(-c2noc(-c3cc(C(F)(F)F)[nH]n3)n2)n1 [Example 255, 2-N-methyl-2-N-phenyl-6-{5-[5-(trifluoromethyl)-1H-pyrazol-3-yl]-1,2,4-oxadiazol-3-yl}-1,3,5-triazine-2,4-diamine]	6.45
CN(c1ccccc1)c1nc(N)nc(-c2noc(-c3ccnn3CC(F)(F)F)n2)n1 [Example 257, 2-N-methyl-2-N-phenyl-6-{5-[1 - (2,2,2-trifluoroethyl)-1H-pyrazol-5-yl]-1,2,4-oxadiazol-3-yl}-1,3,5-triazine-2,4-diamine]	3.25

The next compounds have a lower IC50 than those just listed; values first:

IC50 [µM]	Structure (SMILES)
0.833	Nc1nc(Nc2ccccc2)nc(-c2noc(C(=O)N3CCCC3)n2)n1 [Example 220, 2-N-phenyl-6-{5-[(pyrrolidin-1 - yl)carbonyl]-1,2,4-oxadiazol-3-yl}-1,3,5-triazine-2,4-diamine]
0.729	Nc1nc(Nc2ccccc2)nc(-c2noc(N3CCCCC3)n2)n1 [Example 221, 2-N-Phenyl-6-[5-(piperidin-1-yl)-1,2,4-oxadiazol-3-yl]-1,3,5-triazine-2,4-diamine]
0.776	Nc1nc(Nc2cccc(F)c2)nc(-c2noc(C(=O)NC3Cc4ccccc4C3)n2)n1 [Example 225, 3-{4-amino-6-[(3-fluorophenyl)amino]-1,3,5-triazin-2-yl}-N-(2,3-dihydro-1H-inden-2-yl)-1,2,4-oxadiazole-5-carboxamide]
0.241	Nc1nc(Nc2cccc(F)c2)nc(-c2noc(C(=O)N3CCCC3)n2)n1 [Example 227, 2-N-(3-fluorophenyl)-6-{5-[(pyrrolidin-1-yl)carbonyl]-1,2,4-oxadiazol-3-yl}-1,3,5-triazine-2,4-diamine]
0.401	Nc1nc(Nc2ccccc2)nc(-c2noc(C(=O)NC3CCC3)n2)n1 [Example 228, 3-[4-amino-6-(phenylamino)-1,3,5-triazin-2-yl]-N-cyclobutyl-1,2,4-oxadiazole-5-carboxamide]
1.27	CC(C)NC(=O)c1nc(-c2nc(N)nc(Nc3cccc(F)c3)n2)no1 [Example 234, 3-{4-amino-6-[(3-fluorophenyl)amino]-1,3,5-triazin-2-yl}-N-(propan-2-yl)-1,2,4-oxadiazole-5-carboxamide]
0.406	Nc1nc(Nc2cccc(F)c2)nc(-c2noc(N3CCCCC3)n2)n1 [Example 236, 2-N-(3-fluorophenyl)-6-[5-(piperidin-1-yl)-1,2,4-oxadiazol-3-yl]-1,3,5-triazine-2,4-diamine]
0.172	Nc1nc(Nc2cccc(F)c2)nc(-c2noc(-c3ncccc3F)n2)n1 [Example 240, 2-N-(3-fluorophenyl)-6-[5-(3-fluoropyridin-2-yl)-1,2,4-oxadiazol-3-yl]-1,3,5-triazine-2,4-diamine]
0.089	Nc1nc(Nc2ccc(F)cc2)nc(-c2noc(-c3nccs3)n2)n1 [Example 241]
0.04	COc1ccccc1-c1nc(-c2nc(N)nc(Nc3ccccc3)n2)no1 [Example 247, 6-[5-(2-methoxyphenyl)-1,2,4-oxadiazol-3-yl]-2-N-phenyl-1,3,5-triazine-2,4-diamine]
0.376	COc1ccccc1-c1nc(-c2nc(N)nc(Nc3cccc(F)c3)n2)no1 [Example 248, 2-N-(3-fluorophenyl)-6-[5-(2-methoxyphenyl)-1,2,4-oxadiazol-3-yl]-1,3,5-triazine-2,4-diamine]
0.548	CN(c1ccccc1)c1nc(N)nc(-c2noc(-c3n[nH]cc3Cl)n2)n1 [Example 254, 6-[5-(4-chloro-1H-pyrazol-3-yl)-1,2,4-oxadiazol-3-yl]-2-N-methyl-2-N-phenyl-1,3,5-triazine-2,4-diamine]
